Measured values from patent US11999697B2, “Methods and compositions for inhibition of dihydroorotate dehydrogenase” (OHIO STATE INNOVATION FOUNDATION, priority 2018, dated 2024).
pIC50: −log10 of the molar value.

Columns and labels:
primary human AML cells = test: Flow cytometry staining for differentiation (CD11b/CD14); assay type: cell-based; settings: 1 μM, 14 days
Description: Flow cytometry staining for differentiation: Primary AML cells were solubilized from the methocult in the CFU assays. 5e5 cells were stained and analyzed by flow cytometry as follows: Gating on CD45 positive hematopoietic cells; B, T and NK-cells were identified using CD19, CD3 and NK1.1 surface markers; differentiation in the myeloid population was assessed by gating on CD34/CD33 positive myeloid cells and staining for CD11 b and CD14.
FIGS. 5A-5E show representative flow cytometry data for induction of CD11b and CD14 positive cells in primary human AML cells following vehicle treatment, treatment with a representative disclosed compound, Cpd3, or treatment with a reference compound, brequinar (indicated as “BQR” in the figures) using methods as described herein below. Briefly, primary AML cells were treated with vehicle (DMSO), Cpd3 (1 μM) or brequinar (BQR, 1 μM) and plated in methylcellulose for 14 days. Cells were recovered from the methylcellulose and characterized by flow cytometry (gating on CD34/CD33 positive myeloid cells and staining for CD11b and CD14). FIGS. 5A-5C show the percentage of CD11b and CD14 positive cells within the live CD33/CD34 positive population for a representative “responder” sample. FIGS. 5D and 5E show collective data for eight primary AML samples. […]

[1] = tested on: AML cell lines (MOLM13, MV4-11, OCI-AML3); test: Formal synergy analysis (Combenefit, BLISS) with MDM2 inhibitor AMG-232; assay type: cell-based; settings: Cpd3 0-10 μM with AMG-232 0-10 μM
Description: FIGS. 6D-6F show formal synergy analysis following treatment of different cell-lines (as indicated below) with a representative disclosed compound, Cpd3 (0-10 μM), in the presence or absence of an MDM2 inhibitor, AMG-232 (0-10 μM). The formal synergy analysis was carried out using the Combenefit analysis program (Cambridge Research UK, Cambridge Institute, University of Cambridge, United Kingdom; see also Di Veroli G Y, et al. Bioinformatics. 2016; 32:2866-2868). Combenefit analysis software uses the Loewe, Bliss, and HSA (Highest Single Agent) models to generate surface analyses with statistical significance and global metrics/scores. Data shown for the cell-lines in FIGS. 6D-6F were obtained using the BLISS analysis.

[2] = tested on: normal T-cells (CD4, CD8); test: CFSE proliferation assay; assay type: cell-based, human; settings: 0.3 and 1 μM, CD3/CD28 stimulation, 72 hours
Description: CFSE proliferation assays: Peripheral blood mononuclear cells from healthy adults were negatively selected to enrich for CD3, CD4, or CD8 T-cells. Cells were then stained with carboxyfluorescein succinimidyl ester (CSFE) and stimulated with plate bound anti-CD3 and soluble anti-CD28 antibodies. Proliferation was determined by CFSE dilution in the presence of vehicle or Cpd3 (0.3 and 1 μM doses) at 72 hours.
FIGS. 7A-7I show representative cell proliferation data for normal T-cells following treatment with vehicle or a representative disclosed compound, Cpd3 in the presence or absence of CD3/CD28 stimulation using a CSFE proliferation flow cytometry assay as described herein below. Briefly, T-cells were isolated from normal healthy donors, labeled with CSFE, and then either left unstimulated or co-stimulated with CD3/CD28 in the presence of vehicle or Cpd3 (0.3 and 1 μM doses) for 72 hours. Proliferation was determined by CSFE dilution in CD4 and CD8 T-cells. Data shown in FIGS. 7A-7H were obtained from one representative normal donor.

[3] = tested on: kinases (more than 480 kinase assays); test: DiscoverX KINOMEscan panel; assay type: binding; settings: 1 μM and 10 μM
Source text: A representative disclosed compound, Cpd3, was screened for potential noncovalent binding interaction with kinases by screening a comprehensive panel in the DiscoverX KINOMEscan® platform (Eurofins DiscoverX Corporation, Fremont, Calif. 94538; e.g., see also Herman, S. E. M., et al., Clin Cancer Res; 23(11) Jun. 1, 2017). Panel allows for screening against more than 480 kinase assays including clinically relevant mutants, lipid, atypical, and pathogen kinases. The screening system provides for thermodynamic affinity data (as opposed to IC50s), and allows for detection of multiple inhibitor types, including type I, type II, and allosteric. […] It is notable that the upper limit tested in this screen is at least 10-fold greater than the observed in vitro IC50 for activity in the assays discussed above.

[4] = tested on: luciferase-expressing MOLM-13 cells; test: MOLM13 xenograft study, 10 mg/kg; assay type: in vivo, NCG mice; settings: 10 mg/kg oral gavage, three or five days per week, Days 7 and 14
Description: The effect of a representative disclosed compound, Cpd3, on in vivo tumor growth was assessed in a MOLM13 xenograft study. Briefly, male NCG (NOD-Prkdc^em26Cd52//2rg^em26Cd22/NjuCrl) mice (N=12 per group) were given an intravenous injection of 1×10^4 luciferase-expressing MOLM-13 cells. […] Therefore at 3 days post-engraftment (day 0 treatment), mice were injected with luciferin, imaged for leukemia burden, and began dosing with Cpd3 (10 mg/kg daily by oral gavage) or vehicle control (15% ethanol, 30% PEG-400 in PBS). Mice were treated on two different dosing schedules: Cpd3 three days per week (Mon, Wed and Fri) or five days per week (Mon through Fri). Mice on the Mon, Wed, Fri schedule received a vehicle on Tues and Thurs, so that all mice were consistently gavaged five days per week. In addition to day 0, mice were monitored once weekly (days 7 and 14 post-treatment) by IVIS imaging. In order to assess tumor burden, mice were injected with luciferin and imaged on an IVIS imager Days 0, 7, and 14. […] The data for tumor burden at Day 7 (FIG. 11B) and Day 14 (FIG. 11C) is summarized in bar graph format.

[5] = tested on: AML cell lines (MOLM13, MV4-11, THP1, HL-60, and OCI-AML3); test: cells; settings: read-out: IC50 range for growth arrest in AML cell lines
Description: MTS assay for cell growth/viability: Mitochondrial activity was measured to determine cell proliferation using an MTS assay (tetrazolium dye 3′[4,5-dimethylthiazol-2-yl]-2,5-diphenyl-tetrazolium bromide). Metabolically active cells convert MTS tetrazolium salt into a purple formazan product that is soluble in tissue culture medium. The amount of formazan measured at 490 nm absorbance is proportional to the number of proliferating cells. […] Triplicate wells were set up for each condition. At 96 hours, the MTS reagent was added and after approximately 4 hours the plates were read in a spectrophotometer. MTS assays in primary AML cells were done in a similar manner as the cell lines with the following changes: 100K cells were plated per well, and the MTS was done in the presence of an HS5 stromal cell line to support the in vitro growth of the primary cells. Primary cells were incubated with MTS for approximately 8-12 hours (varies with the samples) before reading the absorbance.
Cell proliferation assays were carried out using the MTS assay described herein using five AML cell lines (i.e., MOLM13, MV4-11, THP1, HL-60, and OCI-AML3) with varied genetic backgrounds. The assays were carried out in a blinded fashion.

CCOc1ccc(-c2ccc(-c3cc(C(=O)O)c4cc(F)ccc4n3)cc2)cc1 [Cpd3, 2-(4′-ethoxy-[1,1′-biphenyl]-4-yl)-6-fluoroquinoline-4-carboxylic acid]
induction of CD11b and CD14 positive cells (primary human AML cells): induces CD11 b and CD14 in primary human AML cells
synergy with MDM2 inhibitor AMG-232 [1]: synergistic cell killing in AML cell lines
T-cell proliferation [2]: inhibits T-cell proliferation
noncovalent binding interaction with kinases [3]: no apparent interactions with the screen targets
tumor burden (luciferase expression by IVIS imaging) [4]: able to reduce the tumor burden in the mice
pIC50 [5]: 5.96 to 6.55
